Data from patent publication US8642656B2, “Calixarene-based peptide conformation mimetics, methods of use, and methods of making” (priority 2004, dated 2014).
Read-outs that look alike come from different tables or passages of the source.

Tests used:
[1] = tested on: chorioallantoic membrane (CAM) vasculature; experiment: Chorioallantoic membrane (CAM) assay; format: in vivo, chicken; conditions: 25 μM daily, day 10 to 13
Method: Fertilized Lohman-selected white leghorn eggs were incubated for 3 days at 37° C. and 55% relative humidity and rotated once every hour. On day 3 a rectangular window (1 cm×2 cm) was made in the eggshell. The window was covered with tape to prevent dehydration. The window allowed undisturbed observation of the developing vasculature of the CAM. On day 7 a silicon ring (10 mm diameter) was placed on the CAM to allow local drug administration within the ring. Compounds were applied daily in aliquots of 65 μl (25 μM) from day 10 to day 13. On day 14 the CAMs were photographed.

bFGF-stimulated HUVEC = experiment: EC proliferation, [3H]-thymidine incorporation, bFGF-stimulated HUVEC (Example 48); format: cell-based, human; conditions: for IC50: bFGF-stimulated HUVEC, highest dose tested 25 μM; for activity as anti-angiogenic agents, ranking in words: library of 23 compounds
Method: Proliferation is expressed as mean counts per minute (cpm) of quadruplicate cultures in three independent experiments (±SEM). […] Human umbilical vein derived EC (HUVEC) were harvested from normal human umbilical cords by perfusion with 0.125% trypsin/EDTA. Harvested HUVECs were cultured in gelatin coated tissue culture flasks and subcultured 1:3 once a week in culture medium (RPM1-1640 with 20% human serum (HS), supplemented with 2 mM glutamine and 100 U/mL penicillin and 0.1 mg/mL streptomycin). Statistical analysis was performed by using the Student's t-test.

B16F10 tumor = experiment: TUNEL staining for total cell apoptosis, B16F10 tumors; format: in vivo, mice; conditions: B16F10, 10 mg/kg; mean ± standard error, 20 images
Method: (§1) To assess the extent of total cell apoptosis, tumor tissue sections were stained by using the TUNEL (terminal deoxyribonucleotidyl transferase-mediated dUTP-nick-end labeling) assay, which was performed according to the manufacturer's instructions (In situ cell death detection kit, fluorescein; TUNEL, Roche). After 1-hour incubation at room temperature, slides were washed with PBS and immediately imaged using an Olympus BX-60 fluorescence microscope at 200× magnification.

LPS from P. aeruginosa = experiment: LPS neutralization assay (Limulus amoebocyte lysate, QCL-1000); format: biochemical, Pseudomonas aeruginosa; conditions: read-out: IC50 values (μM) for LPS binding, P.a.
Summary of the method: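 Chromogenic LAL assay; LPS at 0.04 units (0.01 ng for P. aeruginosa and E. coli 0111:B4, 0.03 ng for S. typhimurium and S. marcascens). pNA release read at 405-410 nm. IC50 by sigmoidal dose-response fit.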

B16F10 tumor vessels = experiment: Histological analysis of microvessel density, anti-CD31 staining, B16F10 tumors; format: in vivo, mice; conditions: B16F10, 10 mg/kg; mean ± standard error, 20 images
Method: (§2) Immunohistochemistry was used to assess microvessel density and the extent of total cell apoptosis. Approximately, tumors of the same size and with no apparent necrosis were selected for processing. On the last day of treatment mice were sacrificed and tumors were excised. Tumor tissue was embedded in tissue freezing medium (Miles Inc, Elkart, Ind.) and shock frozen in liquid nitrogen. Sections of tissue (10 μm thickness) were prepared for immunohistochemical analysis. For this, tissue sections were brought to room temperature, air dried overnight, and then fixed in acetone for 10 minutes. Slides were allowed to air dry for at least 30 minutes and were washed three limes for 5 minutes each in phosphate-buffered saline (PBS, pH 7.4). Samples were then blocked with PBS containing 0.1% bovine serum albumin and 3% human serum albumin for at least 30 minutes at room temperature in a humidified box. Samples were subsequently incubated with phycoerytrin (PE)-conjugated monoclonal antibody to CD31 (PECAM-1) in a 1:50 dilution (Pharmigen, San Diego, Calif.) to stain for microvessel density.
(§3) Digital images were stored and processed using Adobe Photoshop (Adobe Inc., Mountain View Calif.). Quantification of microvessel density, were determined as described previously (Dings et al., Cancer Res 63, 382-385 (2003)). Statistical analysis was performed using the Student's t-test.

[2] = Hematocrit levels, study with B16 tumors in immune competent mice; format: in vivo; conditions: vehicle 51±1.4
Method: As an indirect measurement of general toxicity, body weights of mice were monitored twice weekly, using a digital balance (Ohaus Florham, N.J.). To determine hematocrit levels, blood samples were extracted by tail vein bleedings one day after terminating treatment, and blood was collected in heparinized micro-hematocrit capillary lubes (Fisher Pittsburgh, Pa.). Samples were spun down for 10 minutes in a micro-hematocrit centrifuge (Clay-Adams; NY), and the amount of hematocrit was determined using an international microcapillary reader (IEC; Needham, Mass.).

MA148 tumor = experiment: TUNEL staining for total cell apoptosis, MA148 tumors; format: in vivo, mice; conditions: mean ± standard error, 20 images
Method: as §1

MA148 tumor vessels = experiment: Histological analysis of microvessel density, anti-CD31 staining, MA148 tumors; format: in vivo, mice; conditions: mean ± standard error, 20 images
Method: as §2, §3

5,11,17,23-Tetra-tert-butyl-25,27-bis(2-guanidinoethoxy)-26,28-dihydroxy calix[4]arene trifluoroacetic acid salt [Compound 27]
angiogenesis inhibition in CAM assay (in words) [1]: angiogenesis is inhibited | IC50 (bFGF-stimulated HUVEC): 8 µM | activity as anti-angiogenic agents, ranking in words (bFGF-stimulated HUVEC): most active as anti-angiogenic agents | Apoptosis (B16F10 tumor): 2357 ± 103 pixel counts per image | IC50 (LPS from P. aeruginosa; Table 3, errors estimated ±30%): > 5 µM | Branch Points (B16F10 tumor vessels): 3.5 ± 0.5 pixel counts per image | End Points (B16F10 tumor vessels): 35.2 ± 4.0 pixel counts per image | Vessel Density (B16F10 tumor vessels): 10743 ± 764 pixel counts per image | Vessel Length (B16F10 tumor vessels): 7.5 ± 0.6 pixel counts per image | Hematocrit levels ±SD [2]: 49±1.4 percentage red blood cells | Apoptosis (MA148 tumor; MA148, 2.7 mg/kg): 2418 ± 72 pixel counts per image | Apoptosis (MA148 tumor; MA148, 10 mg/kg): 2333 ± 173 pixel counts per image | Branch Points (MA148 tumor vessels; MA148, 2.7 mg/kg): 1.1 ± 0.3 pixel counts per image | End Points (MA148 tumor vessels; MA148, 2.7 mg/kg): 32.7 ± 6.0 pixel counts per image | Vessel Density (MA148 tumor vessels; MA148, 2.7 mg/kg): 6046 ± 533 pixel counts per image | Vessel Length (MA148 tumor vessels; MA148, 2.7 mg/kg): 4.2 ± 0.6 pixel counts per image | Branch Points (MA148 tumor vessels; MA148, 10 mg/kg): 2.3 ± 0.6 pixel counts per image | End Points (MA148 tumor vessels; MA148, 10 mg/kg): 14.7 ± 2.2 pixel counts per image | Vessel Density (MA148 tumor vessels; MA148, 10 mg/kg): 7402 ± 763 pixel counts per image | Vessel Length (MA148 tumor vessels; MA148, 10 mg/kg): 5.0 ± 0.7 pixel counts per image

CN(C)CCNC(=O)COc1c2cccc1Cc1cccc(c1OCC(=O)NCCN(C)C)Cc1cccc(c1OCC(=O)NCCN(C)C)Cc1cccc(c1OCC(=O)NCCN(C)C)C2 [Compound 40]
angiogenesis inhibition in CAM assay (in words) [1]: angiogenesis is inhibited | IC50 (bFGF-stimulated HUVEC): 2 µM | activity as anti-angiogenic agents, ranking in words (bFGF-stimulated HUVEC): most active as anti-angiogenic agents | Apoptosis (B16F10 tumor): 2807 ± 140 pixel counts per image | IC50 (LPS from P. aeruginosa; Table 2): > 5 µM | IC50 (LPS from P. aeruginosa; Table 3, errors estimated ±30%): > 5 µM | Branch Points (B16F10 tumor vessels): 5.2 ± 0.7 pixel counts per image | End Points (B16F10 tumor vessels): 21.9 ± 2.6 pixel counts per image | Vessel Density (B16F10 tumor vessels): 10231 ± 1330 pixel counts per image | Vessel Length (B16F10 tumor vessels): 8.6 ± 1.2 pixel counts per image | Hematocrit levels ±SD [2]: 53±0 percentage red blood cells | Apoptosis (MA148 tumor; MA148, 2.4 mg/kg): 2919 ± 144 pixel counts per image | Apoptosis (MA148 tumor; MA148, 10 mg/kg): 2323 ± 171 pixel counts per image | Branch Points (MA148 tumor vessels; MA148, 2.4 mg/kg): 1.6 ± 0.3 pixel counts per image | End Points (MA148 tumor vessels; MA148, 2.4 mg/kg): 15.7 ± 2.1 pixel counts per image | Vessel Density (MA148 tumor vessels; MA148, 2.4 mg/kg): 7148 ± 844 pixel counts per image | Vessel Length (MA148 tumor vessels; MA148, 2.4 mg/kg): 5.3 ± 0.7 pixel counts per image | Branch Points (MA148 tumor vessels; MA148, 10 mg/kg): 1.0 ± 0.2 pixel counts per image | End Points (MA148 tumor vessels; MA148, 10 mg/kg): 23.0 ± 2.9 pixel counts per image | Vessel Density (MA148 tumor vessels; MA148, 10 mg/kg): 5112 ± 439 pixel counts per image | Vessel Length (MA148 tumor vessels; MA148, 10 mg/kg): 3.3 ± 0.5 pixel counts per image
